In PubChem BioAssay AID2060328 (Molecular Pharmacology Branch, DTP, NCI, 2025) one finds IC50 and viability, T/C data, which are given here for nine compounds.

This experiment deals with MDA-MB-231 multicell spheroids, viability (%T/C). In words: Anticancer human tumor MDA-MB-231 cell line growth inhibition [IpAb].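 For all read-outs here: viability read after seven days of drug exposure.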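 For viability, T/C: 100% = DMSO vehicle control viability.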 Particulars: for viability, T/C: stronger effect = lower value. An outline of the steps: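 Multi-cell spheroids of 60% tumour cells, 25% HUVEC and 15% MSC in ultra-low-attachment U-bottom wells, treated with agents combined with ipatasertib or abemaciclib. Half-log ranges top out near clinical Cmax, or 10 microM when Cmax is unknown.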

[1] abbreviates: curve of first compound, second compound 0.1 µM.
Where [2] appears, read: curve of first compound, second compound 0.316 µM.
[3] abbreviates: curve of first compound, second compound 1 µM.
Setting [4] is: second compound 0.1 µM, first compound 0.0316 µM.
Setting [5] is: second compound 0.1 µM, first compound 0.1 µM.
The mark [6] stands for this setting: second compound 0.316 µM, first compound 0.0316 µM.
Where [7] appears, read: second compound 0.316 µM, first compound 0.1 µM.
[8] abbreviates: second compound 1 µM, first compound 0.0316 µM.
[9] abbreviates: second compound 1 µM, first compound 0.1 µM.

Where “and” joins values, the source holds several entries; their conditions need not be identical. Equal entries are not always repeated.

In general, IC50 refers to the concentration at which inhibition is half-maximal. In general, viability, T/C refers to the ratio of treated to control. In the case of `CC(C)n1nc(-c2ccc3oc(N)nc3c2)c2c(N)ncnc21` + CC(C)NCC(C(=O)N1CCN(c2ncnc3c2C(C)CC3O)CC1)c1ccc(Cl)cc1, the IC50 under setting [1] came to 15.1 nM; the IC50 under setting [2] is 5.64 nM; the IC50 under setting [3] is 2.25 nM; the concentration for half-maximal inhibition (IC50) (curve of first compound, second compound 3.16 µM) was 0.58 nM; the IC50 (curve of first compound, second compound 10 µM) is < 0.316 nM. In addition, the viability, T/C reads like this: (second compound 0.1 µM, first compound 0.000316 µM) 90.9%; (second compound 0.1 µM, first compound 0.001 µM) 84%; (second compound 0.1 µM, first compound 0.00316 µM) 68.6%; (second compound 0.1 µM, first compound 0.01 µM) 54.5%; under setting [4], 42.5%; under setting [5], 40.5%. Moreover, the viability, T/C is, setting by setting: (second compound 0.316 µM, first compound 0.000316 µM) 86.8%; (second compound 0.316 µM, first compound 0.001 µM) 69.8%; (second compound 0.316 µM, first compound 0.00316 µM) 56.4%; (second compound 0.316 µM, first compound 0.01 µM) 43.8%; under setting [6], 38.6%; under setting [7], 35.4%. The viability, T/C was 67.4% (second compound 1 µM, first compound 0.000316 µM); 59% (second compound 1 µM, first compound 0.001 µM); 46.1% (second compound 1 µM, first compound 0.00316 µM); 36.5% (second compound 1 µM, first compound 0.01 µM); 31.7% under setting [8]; 29.8% under setting [9]. Besides, the viability, T/C by setting is: (second compound 3.16 µM, first compound 0.000316 µM) 53.3%; (second compound 3.16 µM, first compound 0.001 µM) 47%; (second compound 3.16 µM, first compound 0.00316 µM) 36.9%; (second compound 3.16 µM, first compound 0.01 µM) 28.3%; (second compound 3.16 µM, first compound 0.0316 µM) 26.1%; (second compound 3.16 µM, first compound 0.1 µM) 23.3%. For the same compound, the viability, T/C was 38.3% (second compound 10 µM, first compound 0.000316 µM); 34.2% (second compound 10 µM, first compound 0.001 µM); 27.1% (second compound 10 µM, first compound 0.00316 µM); 18.1% (second compound 10 µM, first compound 0.01 µM); 15.2% (second compound 10 µM, first compound 0.0316 µM); 14.6% (second compound 10 µM, first compound 0.1 µM).
For the compound `CCN1CCN(Cc2ccc(Nc3ncc(F)c(-c4cc(F)c5nc(C)n(C(C)C)c5c4)n3)nc2)CC1`, the viability, T/C (compound 0.01 µM) was 88.6% [middle of 13 runs]; the viability, T/C (compound 0.0316 µM) was 74.8% [middle of 13 runs]; the viability, T/C (compound 0.1 µM) was 58.9% [middle of 13 runs]; the viability, T/C (compound 0.316 µM) was 46.5% [middle of 13 runs]; the viability, T/C (compound 1 µM) is 48.8% [middle of 13 runs].
Regarding `Cn1ncc(Cl)c1-c1cc(C(=O)NC(CN)Cc2cccc(F)c2)sc1Cl` (configuration not stated), the viability, T/C by setting is: (compound 0.0316 µM) 100% and 101%; (compound 0.1 µM) 89.6% and 87.9%; (compound 0.316 µM) 75.6%; (compound 1 µM) 57.4% and 57.5%; (compound 3.16 µM) 37.4% and 30%; (compound 10 µM) 0.23% and 0.17%. Moreover, the IC50 (curve of compound) is 1520 nM and 1330 nM.
With `CC1(C)CCC(CN2CCN(c3ccc(C(=O)NS(=O)(=O)c4ccc(NCC5CCOCC5)c([N+](=O)[O-])c4)c(Oc4cnc5[nH]ccc5c4)c3)CC2)=C(c2ccc(Cl)cc2)C1`, the viability, T/C reads like this: (compound 0.0316 µM) 104% and 106%; (compound 0.1 µM) 105% and 104%; (compound 0.316 µM) 103% and 105%; (compound 1 µM) 98.5% and 103%; (compound 3.16 µM) 88.7% and 99.5%; (compound 10 µM) 10.3% and 8.49%. Under “curve of compound”, the IC50 was 5570 nM and 5910 nM.
Consider `Cn1cnc2c(F)c(Nc3ccc(Br)cc3Cl)c(C(=O)NOCCO)cc21`, for which the viability, T/C reads like this: (compound 0.00949 µM) 75.6% and 63.3%; (compound 0.03 µM) 59.9% and 54.4%; (compound 0.0949 µM) 54.8% and 50.4%; (compound 0.3 µM) 52.9% and 41.3%; (compound 0.949 µM) 27.7% and 30.4%; (compound 3 µM) 14.4% and 19.2%. Where the note is “curve of compound”, the half-maximal inhibitory concentration (IC50) was 186 nM and 72.9 nM.
`CC(C)n1nc(-c2ccc3oc(N)nc3c2)c2c(N)ncnc21`: the viability, T/C by setting is: (compound 0.000316 µM) 97.7% and 101%; (compound 0.001 µM) 86.1% and 104%; (compound 0.00316 µM) 72.2% and 72.1%; (compound 0.01 µM) 57.6% and 49.4%; (compound 0.0316 µM) 46.5% and 41.5%; (compound 0.1 µM) 43.5% and 37.4%. The IC50 (curve of compound) was 23.8 nM and 8.68 nM.
Turning to `CCCS(=O)(=O)Nc1ccc(F)c(C(=O)c2c[nH]c3ncc(-c4ccc(Cl)cc4)cc23)c1F`, the viability, T/C by setting is: (compound 0.0316 µM) 112% and 109%; (compound 0.1 µM) 111% and 109%; (compound 0.316 µM) 106% and 112%; (compound 1 µM) 100% and 104%; (compound 3.16 µM) 80.9% and 79.1%; (compound 10 µM) 46.6% and 41.1%. The IC50 (curve of compound) is 9000 nM and 7630 nM.
`C=CC(=O)N1CCN(c2nc(=O)n(-c3c(C)ccnc3C(C)C)c3nc(-c4c(O)cccc4F)c(F)cc23)C(C)C1` (configuration not stated): the viability, T/C reads like this: (compound 0.0316 µM) 106% and 110%; (compound 0.1 µM) 111% and 109%; (compound 0.316 µM) 109% and 117%; (compound 1 µM) 124% and 140%; (compound 3.16 µM) 122% and 126%; (compound 10 µM) 82% and 84.4%. In addition, the IC50 (curve of compound) is > 10000 nM.
With `Cn1ncc(Cl)c1-c1cc(C(=O)NC(CN)Cc2cccc(F)c2)sc1Cl` (configuration not stated) + CCN1CCN(Cc2ccc(Nc3ncc(F)c(-c4cc(F)c5nc(C)n(C(C)C)c5c4)n3)nc2)CC1, the IC50 runs as follows: (curve of first compound, second compound 0.01 µM) 864 nM; (curve of first compound, second compound 0.0316 µM) 378 nM; under setting [1], 76.6 nM; under setting [2], < 31.6 nM; under setting [3], < 31.6 nM. The viability, T/C is 87.3% (second compound 0.01 µM, first compound 0.0316 µM); 77.6% (second compound 0.01 µM, first compound 0.1 µM); 66.7% (second compound 0.01 µM, first compound 0.316 µM); 45.7% (second compound 0.01 µM, first compound 1 µM); 27.5% (second compound 0.01 µM, first compound 3.16 µM); 0.12% (second compound 0.01 µM, first compound 10 µM). Besides, the viability, T/C by setting is: (second compound 0.0316 µM, first compound 0.0316 µM) 73.4%; (second compound 0.0316 µM, first compound 0.1 µM) 64.8%; (second compound 0.0316 µM, first compound 0.316 µM) 51.9%; (second compound 0.0316 µM, first compound 1 µM) 36.4%; (second compound 0.0316 µM, first compound 3.16 µM) 23%; (second compound 0.0316 µM, first compound 10 µM) 0.11%. Further, the viability, T/C under setting [4] is 52.6%; the viability, T/C under setting [5] was 52%; the viability, T/C (second compound 0.1 µM, first compound 0.316 µM) is 40%; the viability, T/C (second compound 0.1 µM, first compound 1 µM) was 30.2%; the viability, T/C (second compound 0.1 µM, first compound 3.16 µM) is 20.4%; the viability, T/C (second compound 0.1 µM, first compound 10 µM) is 0.87%. For the same compound, the viability, T/C is 43.4% under setting [6]; 42.7% under setting [7]; 32.9% (second compound 0.316 µM, first compound 0.316 µM); 30.5% (second compound 0.316 µM, first compound 1 µM); 26% (second compound 0.316 µM, first compound 3.16 µM); 0.53% (second compound 0.316 µM, first compound 10 µM). Moreover, the viability, T/C is 44.2% under setting [8]; 46.3% under setting [9]; 43.2% (second compound 1 µM, first compound 0.316 µM); 38.7% (second compound 1 µM, first compound 1 µM); 43.6% (second compound 1 µM, first compound 3.16 µM); 0.79% (second compound 1 µM, first compound 10 µM).
